Structures are written as SMILES.

The values that follow come from patent US8952021B2, “Compounds for the prevention and treatment of cardiovascular disease” (Resverlogix Corp., priority 2009, dated 2015).

The test concerns ApoA-I mRNA. In words: Quantification of ApoA-I mRNA in HepG2 cells (real-time PCR). The format is cell-based. On the set-up: key: Active: An active compound was defined as one that caused a ≧20% increase in ApoA-I mRNA at a concentration less than or equal to 100 μM. Particulars: fold induction relative to DMSO control, concentration less than or equal to 100 μM. The protocol:
In this example, ApoA-I mRNA in tissue culture cells was quantitated to measure the transcriptional up-regulation of ApoA-I when treated with a compound of the invention.
HepG2 cells (approximately 2×10^5 per well) were placed in a 24-well plate in approximately 400 μL MEM, supplemented with 0.5% (v/v) FBS, 24 h before addition of the compound of interest. At time of harvesting, the spent media was removed from the HepG2 cells and immediately placed on ice (for immediate use) or at −80° C. (for future use) in ApoA-I and albumin ELISAs. The cells remaining in the plate wells were rinsed in 200 μL PBS. PBS was carefully removed to avoid removing any loosely attached cells.
Once the PBS was removed, 85 μL cell lysis solution was added the cells in each well and incubated for 5-10 minutes at room temperature, to allow for complete cell lysis and detachment. mRNA was then prepared using the “mRNA Catcher PLUS plate” from Invitrogen, according to the protocol supplied. After the last wash, as much wash buffer as possible was aspirated without allowing the wells to dry. Elution Buffer (E3, 80 μL) was then added to each well. mRNA was then eluted by incubating the mRNA Catcher PLUS plate with Elution Buffer for 5 minutes at 68° C. and then immediately placing the plate on ice.
The eluted mRNA isolated was then used in a one-step real-time […] reaction, using components of the Ultra Sense Kit together with Applied Biosystems primer-probe mixes. Real-time PCR data was analyzed, using the Ct values, to determine the fold induction of each unknown sample, relative to the control (that is, relative to the control for each independent DMSO concentration).
An active compound was defined as one that caused a ≧20% increase in ApoA-I mRNA at a concentration less than or equal to 100 μM.
(In general: In qPCR the cycle at which signal appears reflects the starting amount.)
Turning to `CCC(C)c1ccc(-n2c(-c3cccnc3)nc3ccccc3c2=O)cc1` (centres unmarked) [Example 35, 3-(4-sec-butylphenyl)-2-(pyridin-3-yl)quinazolin-4(3H)-one], the “Effect on ApoA-I mRNA levels” value is given as “Active”.
Then `CCC(C)c1ccc(-n2c(-c3ccc(N4CCCCC4)nc3)nc3ccccc3c2=O)cc1` (centres unmarked) [Example 49, 3-(4-sec-butylphenyl)-2-(6-(piperidin-1-yl)pyridin-3-yl)quinazolin-4(3H)-one], with “Active”; and `Cc1cc(-c2nc3ccccc3c(=O)n2-c2ccc(Cl)cc2)ccc1OCCO` [Example 34, 3-(4-chlorophenyl)-2-(4-(2-hydroxyethoxy)-3-methylphenyl)quinazolin-4(3H)-one], with “Active”.
Then `Cc1cc(-c2nc3ccccc3c(=O)n2-c2ccc(NC(=O)C(C)C)cc2)cc(C)c1OCCO` [Example 24, N-(4-(2-(4-(2-hydroxyethoxy)-3,5-dimethylphenyl)-4-oxoquinazolin-3(4H)-yl)phenyl)isobutyramide], with “Active”.
To `CCC(C)c1ccc(-n2c(-c3ccc(CN4CCOCC4)nc3)nc3ccccc3c2=O)cc1` (centres unmarked) [Example 67, 3-(4-sec-butylphenyl)-2-(6-(morpholinomethyl)pyridin-3-yl)quinazolin-4(3H)-one] belongs “Active”; to `COC(=O)c1ccc(-n2c(-c3cc(C)c(OCCO)c(C)c3)nc3ccccc3c2=O)cc1` [Example 25, methyl 4-(2-(4-(2-hydroxyethoxy)-3,5-dimethylphenyl)-4-oxoquinazolin-3(4H)-yl)benzoate], “Active”; to `O=c1c2ccccc2nc(-c2cncc(Br)c2)n1-c1ccc(Cl)cc1` [Example 58, 2-(5-bromopyridin-3-yl)-3-(4-chlorophenyl)quinazolin-4(3H)-one], “Active”.
With `O=c1c2ccccc2nc(-c2ccc(C(F)(F)F)nc2)n1-c1ccc(Cl)cc1` [Example 53, 3-(4-chlorophenyl)-2-(6-(trifluoromethyl)pyridin-3-yl)quinazolin-4(3H)-one], the “Effect on ApoA-I mRNA levels” value is on record as “Active”.
To `O=c1c2ccccc2nc(-c2ccc(Br)nc2)n1-c1ccc(Cl)cc1` [Example 41, 2-(6-bromopyridin-3-yl)-3-(4-chlorophenyl)quinazolin-4(3H)-one] belongs “Active”.
To `Cc1cc(-c2nc3ccccc3c(=O)n2-c2ccc(NC=O)cc2)cc(C)c1OCCO` [Example 27, N-(4-(2-(4-(2-hydroxyethoxy)-3,5-dimethylphenyl)-4-oxoquinazolin-3(4H)-yl)phenyl)formamide] belongs “Active”.
To `Cc1ccc(-c2nc3ccccc3c(=O)n2-c2ccc(C(C)C)cc2)cn1` [Example 65, 3-(4-isopropylphenyl)-2-(6-methylpyridin-3-yl)quinazolin-4(3H)-one] belongs “Active”; to `Cc1cc(-c2nc3ccccc3c(=O)n2-c2ccc(C(F)(F)F)cc2)cc(C)c1OCCO` [Example 11, 2-(4-(2-hydroxyethoxy)-3,5-dimethylphenyl)-3-(4-(trifluoromethyl)phenyl)quinazolin-4(3H)-one], “Active”.
On to `O=c1c2ccccc2nc(-c2ccc3[nH]ccc3c2)n1-c1ccc(Cl)cc1` [Example 73, 3-(4-chlorophenyl)-2-(1H-indol-5-yl)quinazolin-4(3H)-one], for which the “Effect on ApoA-I mRNA levels” value is “Active”.
Then `CCC(C)c1ccc(-n2c(-c3ccc(-c4ccccc4)nc3)nc3ccccc3c2=O)cc1` (centres unmarked) [Example 55, 3-(4-sec-butylphenyl)-2-(6-phenylpyridin-3-yl)quinazolin-4(3H)-one], with “Active”.
Then `CCC(C)c1ccc(-n2c(-c3ccc(Cl)nc3)nc3ccccc3c2=O)cc1` (centres unmarked) [Example 39, 3-(4-sec-butylphenyl)-2-(6-chloropyridin-3-yl)quinazolin-4(3H)-one], with “Active”; and `Cc1ccc(-c2nc3ccccc3c(=O)n2-c2ccc(C3CCCC3)cc2)cn1` [Example 62, 3-(4-cyclopentylphenyl)-2-(6-methylpyridin-3-yl)quinazolin-4(3H)-one], with “Active”.
Then `CC(C)c1ccc(-n2c(-c3ccc4[nH]ccc4c3)nc3ccccc3c2=O)cc1` [Example 77, 2-(1H-indol-5-yl)-3-(4-isopropylphenyl)quinazolin-4(3H)-one], with “Active”; and `CCC(C)c1ccc(-n2c(-c3ccc(OC)nc3)nc3ccccc3c2=O)cc1` (centres unmarked) [Example 40, 3-(4-sec-butylphenyl)-2-(6-methoxypyridin-3-yl)quinazolin-4(3H)-one], with “Active”; and `CCC(C)c1ccc(-n2c(-c3ccc(N4CCOCC4)nc3)nc3ccccc3c2=O)cc1` (centres unmarked) [Example 71, 3-(4-sec-butylphenyl)-2-(6-morpholinopyridin-3-yl)quinazolin-4(3H)-one], with “Active”.
For the compound `CCC(C)c1ccc(-n2c(-c3ccc(C)nc3)nc3ccccc3c2=O)cc1` (centres unmarked) [Example 46, 3-(4-sec-butylphenyl)-2-(6-methylpyridin-3-yl)quinazolin-4(3H)-one], the “Effect on ApoA-I mRNA levels” value is “Active”.
Turning to `O=c1c2ccccc2nc(-c2ccc(Cl)nc2)n1-c1ccc(C2CC2)cc1` [Example 70, 2-(6-chloropyridin-3-yl)-3-(4-cyclopropylphenyl)quinazolin-4(3H)-one], the “Effect on ApoA-I mRNA levels” value is “Active”.
Consider `CCC(C)c1ccc(-n2c(-c3ccc(N(CC)CC)nc3)nc3ccccc3c2=O)cc1` (centres unmarked) [Example 44, 3-(4-sec-butylphenyl)-2-(6-(diethylamino)pyridin-3-yl)quinazolin-4(3H)-one], for which the “Effect on ApoA-I mRNA levels” value is reported as “Active”.
As to `CCN(CC)c1cncc(-c2nc3ccccc3c(=O)n2-c2ccc(Cl)cc2)c1` [Example 61, 3-(4-chlorophenyl)-2-(5-(diethylamino)pyridin-3-yl)quinazolin-4(3H)-one], the “Effect on ApoA-I mRNA levels” value is reported as “Active”.
In the case of `Cc1ccc(-c2nc3ccccc3c(=O)n2-c2ccc(NS(C)(=O)=O)cc2)cn1` [Example 66, N-(4-(2-(6-methylpyridin-3-yl)-4-oxoquinazolin-3(4H)-yl)phenyl)methanesulfonamide], the “Effect on ApoA-I mRNA levels” value is “Active”.
Then `O=c1c2ccccc2nc(-c2ccc3cc[nH]c3c2)n1-c1ccc(Cl)cc1` [Example 85, 3-(4-chlorophenyl)-2-(1H-indol-6-yl)quinazolin-4(3H)-one], with “Active”; and `CCC(C)c1ccc(-n2c(-c3ccc4nc(CO)[nH]c4c3)nc3ccccc3c2=O)cc1` (centres unmarked) [Example 75, 3-(4-sec-butylphenyl)-2-(2-(hydroxymethyl)-1H-benzo[d]imidazol-6-yl)quinazolin-4(3H)-one], with “Active”.
In the case of `Cc1ccc(-c2nc3ccccc3c(=O)n2-c2ccc(N(C)C)cc2)cn1` [Example 69, 3-(4-(dimethylamino)phenyl)-2-(6-methylpyridin-3-yl)quinazolin-4(3H)-one], the “Effect on ApoA-I mRNA levels” value is recorded as “Active”.
For `O=c1c2ccccc2nc(-c2cnc3c(ccn3S(=O)(=O)c3ccccc3)c2)n1-c1ccc(Cl)cc1` [Example 81, 3-(4-chlorophenyl)-2-(1-(phenylsulfonyl)-1H-pyrrolo[2,3-b]pyridin-5-yl)quinazolin-4(3H)-one], the “Effect on ApoA-I mRNA levels” value is on record as “Active”.
To `CN(C)c1ccc(-n2c(-c3ccc4[nH]ccc4c3)nc3ccccc3c2=O)cc1` [Example 80, 3-(4-(dimethylamino)phenyl)-2-(1H-indol-5-yl)quinazolin-4(3H)-one] belongs “Active”.
As to `CCC(C)c1ccc(-n2c(-c3ccc4[nH]ncc4c3)nc3ccccc3c2=O)cc1` (centres unmarked) [Example 72, 3-(4-sec-butylphenyl)-2-(1H-indazol-5-yl)quinazolin-4(3H)-one], the “Effect on ApoA-I mRNA levels” value is given as “Active”.
On to `O=c1c2ccccc2nc(-c2cccc3[nH]ccc23)n1-c1ccc(Cl)cc1` [Example 89, 3-(4-chlorophenyl)-2-(1H-indol-4-yl)quinazolin-4(3H)-one], for which the “Effect on ApoA-I mRNA levels” value is listed as “Active”.
To `CCC(C)c1ccc(-n2c(-c3cncnc3)nc3ccccc3c2=O)cc1` (centres unmarked) [Example 45, 3-(4-sec-butylphenyl)-2-(pyrimidin-5-yl)quinazolin-4(3H)-one] belongs “Active”; to `CCN(CC)c1ccc(-c2nc3ccccc3c(=O)n2-c2ccc(Cl)cc2)cn1` [Example 43, 3-(4-chlorophenyl)-2-(6-(diethylamino)pyridin-3-yl)quinazolin-4(3H)-one], “Active”; to `CCC(C)c1ccc(-n2c(-c3cccc4cc[nH]c34)nc3ccccc3c2=O)cc1` (centres unmarked) [Example 88, 3-(4-sec-butylphenyl)-2-(1H-indol-7-yl)quinazolin-4(3H)-one], “Active”.
To `O=c1c2ccccc2nc(-c2ccc3[nH]ccc3c2)n1-c1ccc(C2CCCC2)cc1` [Example 84, 3-(4-cyclopentylphenyl)-2-(1H-indol-5-yl)quinazolin-4(3H)-one] belongs “Active”.
